The subject of one data set is interferon. The note with it: background, cited from earlier work.
In data set [1] the test system is spleen cell. Kind of data set: IF induction in vitro, mouse spleen cells (determined in L cells). Type of data set: cell-based. The note with it: 1.0* μg/ml, control.
Data set [2] deals with spleen cell. Kind of data set: IF induction in vitro, rabbit spleen cells (determined in RK-13). As to conditions: 1.0* μg/ml, control. Type of data set: cell-based.
For the next data set, the system named is Human spleen. The data set can be described thus: IF induction in vitro, human spleen (determined in FL cells). Format: cell-based. The note with it: 1.0* μg/ml, control. On the procedure: A spleen cell suspension (10^7 cells/ml) was prepared by the method of hereinafter described Experiment 1 using an Eagle MEM medium (commercial product of Nissui Seiyaku K.K., Tokyo) containing a 10% calf serum (which was replaced by a 10% fetal cattle serum in the cases of human tests), each of which fraction (1 ml) was added with a given concentration of the sample and incubated overnight at a given temperature. The cultured liquor was centrifuged to separate a supernatant which was used for determining the IF activity induced. In the case of humans, the fresh spleen was collected from a person (adult deceased by external wounds) and used for the preparation of a leucocytes suspension on each occasion, and also blood was collected from the vein at the upper arm of a person (adult), from which the serum was separated to use for the preparation of a serum suspension of each occasion.
The IF activities were determined by using the cells shown in Table 5 in a similar manner to that hereinafter described in Experiment 1.

The conditions of data set [3]: 56° C. for 5 hours; cited from earlier work.

Entries after “also recorded” stand apart in the source; their conditions may differ. Read-outs that look alike come from different tables or passages of the source.

On to `O=C(/C=C/c1ccc(O)cc1)C1=C(O)[C@](O)([C@@H]2O[C@H](CO)[C@@H](O)[C@H](O)[C@H]2O)C(O)=C(/C=C2/C(=O)C(C(=O)/C=C/c3ccc(O)cc3)=C(O)[C@@](O)([C@@H]3O[C@H](CO)[C@@H](O)[C@H](O)[C@H]3O)C2=O)C1=O` [carthamine], for which the IF inducing activity result with interferon is on record as “no IF inducing activity”.

Poly I:C: the “IF activity in vitro” value in the data set with spleen cell [1] was 75; in the data set on spleen cell [2] it was 160; in the data set on Human spleen it was less than 10.

As for carthamone, in the data set with interferon, the IF inducing activity result is “no IF inducing activity”.

With neocarthamine, in the data set on interferon, the IF inducing activity entry was “no IF inducing activity”.

As to phytohemagglutinin, in data set [3], the “IF-inducing activity on heating” value was “inactivated”. For the same compound, the IF inducing activity result in the data set on interferon was “very weak”; with interferon (listed as phytohemagglitinin) it was “extremely low”.

For pokeweed mitogen, the “IF-inducing activity on heating” value in data set [3] is listed as “inactivated”. In addition, in the data set on interferon, the IF inducing activity result is recorded as “very weak; also recorded: extremely low”.

The record behind these values is US4440761A, “Interferon inducer, a process for producing the same and pharmaceutical composition containing the same” (The Kitasato Institute, priority 1980, dated 1984).
